Test results from patent US9006139B2, “Active compound combinations” (Bayer Intellectual Property GmbH, priority 2009, dated 2015).
Where two headings read alike, the source gives them in different places.

Experiments:
Type in all cases: in vivo
[1] = tested on: Botrytis cinerea; assay: Botrytis test (beans)/protective; details: Botrytis cinerea, 48 h, Table F, read-out: Efficacy in % found; for pest or weed control at 25 ppm: 25 ppm a.i.; for pest or weed control at 50 ppm: 50 ppm a.i.
Outline: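 Young bean plants were sprayed with compound in acetone/dimethylacetamide plus emulsifier diluted in water; once dry, each leaf got 2 agar pieces bearing Botrytis cinerea. Plants were held dark at 20 °C and 100% relative humidity, and lesion size was scored after 2 days as efficacy, 0% matching untreated control and 100% meaning no disease.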

[2] = tested on: Venturia inaequalis; assay: Venturia test (apples)/protective; details: Table D
Experimental: (§1) Solvent: 24.5 parts by weight of acetone
(§2) • 24.5 parts by weight of dimethylacetamide Emulsifier: 1 part by weight of alkylaryl polyglycol ether
(§3) To produce a suitable preparation of active compound, 1 part by weight of active compound is mixed with the stated amounts of solvent and emulsifier, and the concentrate is diluted with water to the desired concentration. To test for protective activity, young plants are sprayed with the preparation of active compound at the stated rate of application. After the spray coating has dried on, the plants are inoculated with an aqueous conidia suspension of the causal agent of apple scab (Venturia inaequalis) and then remain for 1 day in an incubation cabinet at approximately 20° C. and a relative atmospheric humidity of 100%. The plants are then placed in a greenhouse at approximately 21° C. and a relative atmospheric humidity of approximately 90%. The test is evaluated 10 days after the inoculation. 0% means an efficacy which corresponds to that of the control, while an efficacy of 100% means that no disease is observed.

[3] = tested on: Plasmopara viticola; assay: Plasmopara test (grapevines)/protective; details: Table B; 50 ppm a.i.
Experimental: as §1, §2
as §3, with “aqueous spore” for “aqueous conidia”, “of Plasmopara viticola” for “of the causal agent of apple scab (Venturia inaequalis)”, “The plant is subsequently” for “The plants are then”, “placed for 4 days” for “placed”, “The plants are then misted and placed for 1 day in an incubation cabinet. The” for “The”, “evaluated 6” for “evaluated 10”

[4] = tested on: Puccinia triticina; assay: Puccinia triticina-test (wheat)/preventive; details: Table M; 500 ppm a.i.
Experimental: Solvent: 49 parts by weight of n,n-dimethylacetamid
Emulsifier: 1 part by weight of alkylaryl polyglycol ether
To produce a suitable preparation of active compound, 1 part by weight of active compound or active compound combination is mixed with the stated amounts of solvent and emulsifier, and the concentrate is diluted with water to the desired concentration. To test for preventive activity, young plants are sprayed with the preparation of active compound or active compound combination at the stated rate of application. After the spray coating has been dried, the plants are sprayed with a spore suspension of Puccinia triticina. The plants remain for 48 hours in an incubation cabinet at approximately 20° C. and a relative atmospheric humidity of approximately 100%. The plants are placed in the greenhouse at a temperature of approximately 20° C. and a relative atmospheric humidity of approximately 80%. The test is evaluated 8 days after the inoculation. 0% means an efficacy which corresponds to that of the untreated control, while an efficacy of 100% means that no disease is observed.

[5] = tested on: Phytophthora infestans; assay: whole plant or invertebrate; details: Phytophthora infestans, 72 h; for pest or weed control at 12.5 ppm: 12.5 ppm a.i.; for pest or weed control at 50 ppm: 50 ppm a.i.; for pest or weed control at 10 ppm: 10 ppm a.i.; for pest or weed control at 20 ppm: 20 ppm a.i.
[6] = read-out: Efficacy in % found, Table A, test 1
[7] = read-out: Efficacy in % found, Table A, test 5
[8] = read-out: Efficacy in % found, Table A, test 6

Which results are given for Cn1c(=O)c2sc3c(=O)n(C)c(=O)c3sc2c1=O [(I-1), 2,6-dimethyl-1H,5H-[1,4]dithiino[2,3-c:5,6-c′]dipyrrole-1,3,5,7(2H,6H)-tetrone]?
pest or weed control at 25 ppm ([1]; test 1): 0%; pest or weed control at 50 ppm ([1]; test 1): 45%; pest or weed control at 25 ppm ([1]; test 2): 0%; pest or weed control at 50 ppm ([1]; test 2): 40%; pest or weed control at 12.5 ppm ([1]; test 3, 12.5 ppm a.i.): 0%; pest or weed control at 50 ppm ([1]; test 3): 58%; Efficacy in % found ([2]; test 1, 12.5 ppm a.i.): 26%; Efficacy in % found ([2]; test 1, 25 ppm a.i.): 72%; Efficacy in % found ([2]; test 2, 12.5 ppm a.i.): 14%; Efficacy in % found [3]: 54%; Efficacy in % found [4]: 10%; pest or weed control at 12.5 ppm [5, 6]: 0%; pest or weed control at 25 ppm ([5]; read-out: Efficacy in % found, Table A, test 1, 25 ppm a.i.): 5%; pest or weed control at 50 ppm [5, 6]: 18%; pest or weed control at 12.5 ppm ([5]; read-out: Efficacy in % found, Table A, test 2): 35%; pest or weed control at 50 ppm ([5]; read-out: Efficacy in % found, Table A, test 3): 36%; pest or weed control at 50 ppm ([5]; read-out: Efficacy in % found, Table A, test 4): 47%; pest or weed control at 10 ppm [5, 7]: 0%; pest or weed control at 20 ppm [5, 7]: 0%; pest or weed control at 10 ppm [5, 8]: 0%; pest or weed control at 20 ppm [5, 8]: 9%; pest or weed control at 40 ppm ([5]; read-out: Efficacy in % found, Table A, test 6, 40 ppm a.i.): 11%; pest or weed control at 12.5 ppm ([5]; read-out: Efficacy in % found, Table A, test 7): 39%
